What was measured:
Assay type in all cases: in vivo
Stellaria media [1] = assay: Herbicidal activity, preemergence test; settings: pre; sprayed onto soil, 800 g of active material per hectare; evaluated 3 weeks after treatment
Experimental: (§1) To evaluate their herbicidal activity, compounds according to the invention are tested using a representative range of plants: TRZAW Triticum aestivum HORVW Hordeum vulgare ZEAMX Zea mays GOSHI Gossypium hirsutum HELAN Helianthus annuus GLYMA Glycine max ALOMY Alopecurus myosuroides SETVI Setaria viridis ECHCG Echinochloa crus-galli GALAP Galium aparine STEME Stellaria media VERPE Veronica persica VIOAR Viola arvensis IPOHE Ipomoea hederacea LAMPU Lamium purpureum PAPRH Papaver rhoeas MATIN Matricaria inodora AMARE Amaranthus retroflexus ABUTH Abutilon theophrasti AMBEL Ambrosia artemisifolia CHEAL Chenopodium album
(§2) The tests fall into two categories, preemergence and postemergence. The preemergence tests involve spraying a liquid formulation of the compound onto the soil in which the seeds have recently been sown. The postemergence tests involve spraying a liquid formulation of the compound onto seedling plants.
(§3) The soil used in the tests is a prepared horticultural loam.
(§4) The formulations used in the tests are prepared from solutions of the test compounds in acetone containing 0.4% by weight of an alkylphenol/ethylene oxide condensate available under the trade mark TRITON X-155. These acetone solutions are diluted with water and the resulting formulations applied at dosage levels corresponding to 800 g of active material per hectare in a volume equivalent to 900 litres per hectare.
(§5) In the preemergence tests untreated sown soil and in the postemergence tests untreated soil bearing seedling plants are used as controls.
(§6) Results of herbicide evaluation are expressed on a rating scale (0-9). The scale is based upon a visual observation of plant stand, vigor, malformation, size, chlorosis, and general plant appearance as compared to a control. Preemergence and postemergence treatments are evaluated at 3 and 2 weeks after treatment, respectively.

Galium aparine [2] = assay: Herbicidal activity, preemergence test; settings: pre; sprayed onto soil, 800 g of active material per hectare; evaluated 3 weeks after treatment
Experimental: as §1, §2, §3, §4, §5, §6

Glycine max [3] = assay: Herbicidal activity, preemergence test; settings: pre; sprayed onto soil, 800 g of active material per hectare; evaluated 3 weeks after treatment
Experimental: as §1, §2, §3, §4, §5, §6

Chenopodium album [4] = assay: Herbicidal activity, preemergence test; settings: pre; sprayed onto soil, 800 g of active material per hectare; evaluated 3 weeks after treatment
Experimental: as §1, §2, §3, §4, §5, §6

Veronica persica [5] = assay: Herbicidal activity, preemergence test; settings: pre; sprayed onto soil, 800 g of active material per hectare; evaluated 3 weeks after treatment
Experimental: as §1, §2, §3, §4, §5, §6

Lamium purpureum [6] = assay: Herbicidal activity, preemergence test; settings: pre; sprayed onto soil, 800 g of active material per hectare; evaluated 3 weeks after treatment
Experimental: as §1, §2, §3, §4, §5, §6

Matricaria inodora [7] = assay: Herbicidal activity, preemergence test; settings: pre; sprayed onto soil, 800 g of active material per hectare; evaluated 3 weeks after treatment
Experimental: as §1, §2, §3, §4, §5, §6

Zea mays [8] = assay: Herbicidal activity, preemergence test; settings: pre; sprayed onto soil, 800 g of active material per hectare; evaluated 3 weeks after treatment
Experimental: as §1, §2, §3, §4, §5, §6

Hordeum vulgare [9] = assay: Herbicidal activity, preemergence test; settings: pre; sprayed onto soil, 800 g of active material per hectare; evaluated 3 weeks after treatment
Experimental: as §1, §2, §3, §4, §5, §6

Gossypium hirsutum [10] = assay: Herbicidal activity, preemergence test; settings: pre; sprayed onto soil, 800 g of active material per hectare; evaluated 3 weeks after treatment
Experimental: as §1, §2, §3, §4, §5, §6

Setaria viridis [11] = assay: Herbicidal activity, preemergence test; settings: pre; sprayed onto soil, 800 g of active material per hectare; evaluated 3 weeks after treatment
Experimental: as §1, §2, §3, §4, §5, §6

Triticum aestivum [12] = assay: Herbicidal activity, preemergence test; settings: pre; sprayed onto soil, 800 g of active material per hectare; evaluated 3 weeks after treatment
Experimental: as §1, §2, §3, §4, §5, §6

Ambrosia artemisifolia [13] = assay: Herbicidal activity, preemergence test; settings: pre; sprayed onto soil, 800 g of active material per hectare; evaluated 3 weeks after treatment
Experimental: as §1, §2, §3, §4, §5, §6

Ipomoea hederacea [14] = assay: Herbicidal activity, preemergence test; settings: pre; sprayed onto soil, 800 g of active material per hectare; evaluated 3 weeks after treatment
Experimental: as §1, §2, §3, §4, §5, §6

Papaver rhoeas [15] = assay: Herbicidal activity, preemergence test; settings: pre; sprayed onto soil, 800 g of active material per hectare; evaluated 3 weeks after treatment
Experimental: as §1, §2, §3, §4, §5, §6

Alopecurus myosuroides [16] = assay: Herbicidal activity, preemergence test; settings: pre; sprayed onto soil, 800 g of active material per hectare; evaluated 3 weeks after treatment
Experimental: as §1, §2, §3, §4, §5, §6

Abutilon theophrasti [17] = assay: Herbicidal activity, preemergence test; settings: pre; sprayed onto soil, 800 g of active material per hectare; evaluated 3 weeks after treatment
Experimental: as §1, §2, §3, §4, §5, §6

Amaranthus retroflexus [18] = assay: Herbicidal activity, preemergence test; settings: pre; sprayed onto soil, 800 g of active material per hectare; evaluated 3 weeks after treatment
Experimental: as §1, §2, §3, §4, §5, §6

Stellaria media [19] = assay: Herbicidal activity, postemergence test; settings: post; sprayed onto seedling plants, 800 g of active material per hectare; evaluated 2 weeks after treatment
Experimental: as §1, §2, §3, §4, §5, §6

Galium aparine [20] = assay: Herbicidal activity, postemergence test; settings: post; sprayed onto seedling plants, 800 g of active material per hectare; evaluated 2 weeks after treatment
Experimental: as §1, §2, §3, §4, §5, §6

Glycine max [21] = assay: Herbicidal activity, postemergence test; settings: post; sprayed onto seedling plants, 800 g of active material per hectare; evaluated 2 weeks after treatment
Experimental: as §1, §2, §3, §4, §5, §6

Chenopodium album [22] = assay: Herbicidal activity, postemergence test; settings: post; sprayed onto seedling plants, 800 g of active material per hectare; evaluated 2 weeks after treatment
Experimental: as §1, §2, §3, §4, §5, §6

Veronica persica [23] = assay: Herbicidal activity, postemergence test; settings: post; sprayed onto seedling plants, 800 g of active material per hectare; evaluated 2 weeks after treatment
Experimental: as §1, §2, §3, §4, §5, §6

Lamium purpureum [24] = assay: Herbicidal activity, postemergence test; settings: post; sprayed onto seedling plants, 800 g of active material per hectare; evaluated 2 weeks after treatment
Experimental: as §1, §2, §3, §4, §5, §6

Matricaria inodora [25] = assay: Herbicidal activity, postemergence test; settings: post; sprayed onto seedling plants, 800 g of active material per hectare; evaluated 2 weeks after treatment
Experimental: as §1, §2, §3, §4, §5, §6

Zea mays [26] = assay: Herbicidal activity, postemergence test; settings: post; sprayed onto seedling plants, 800 g of active material per hectare; evaluated 2 weeks after treatment
Experimental: as §1, §2, §3, §4, §5, §6

Hordeum vulgare [27] = assay: Herbicidal activity, postemergence test; settings: post; sprayed onto seedling plants, 800 g of active material per hectare; evaluated 2 weeks after treatment
Experimental: as §1, §2, §3, §4, §5, §6

Gossypium hirsutum [28] = assay: Herbicidal activity, postemergence test; settings: post; sprayed onto seedling plants, 800 g of active material per hectare; evaluated 2 weeks after treatment
Experimental: as §1, §2, §3, §4, §5, §6

Setaria viridis [29] = assay: Herbicidal activity, postemergence test; settings: post; sprayed onto seedling plants, 800 g of active material per hectare; evaluated 2 weeks after treatment
Experimental: as §1, §2, §3, §4, §5, §6

Triticum aestivum [30] = assay: Herbicidal activity, postemergence test; settings: post; sprayed onto seedling plants, 800 g of active material per hectare; evaluated 2 weeks after treatment
Experimental: as §1, §2, §3, §4, §5, §6

Ambrosia artemisifolia [31] = assay: Herbicidal activity, postemergence test; settings: post; sprayed onto seedling plants, 800 g of active material per hectare; evaluated 2 weeks after treatment
Experimental: as §1, §2, §3, §4, §5, §6

Ipomoea hederacea [32] = assay: Herbicidal activity, postemergence test; settings: post; sprayed onto seedling plants, 800 g of active material per hectare; evaluated 2 weeks after treatment
Experimental: as §1, §2, §3, §4, §5, §6

Papaver rhoeas [33] = assay: Herbicidal activity, postemergence test; settings: post; sprayed onto seedling plants, 800 g of active material per hectare; evaluated 2 weeks after treatment
Experimental: as §1, §2, §3, §4, §5, §6

Alopecurus myosuroides [34] = assay: Herbicidal activity, postemergence test; settings: post; sprayed onto seedling plants, 800 g of active material per hectare; evaluated 2 weeks after treatment
Experimental: as §1, §2, §3, §4, §5, §6

Abutilon theophrasti [35] = assay: Herbicidal activity, postemergence test; settings: post; sprayed onto seedling plants, 800 g of active material per hectare; evaluated 2 weeks after treatment
Experimental: as §1, §2, §3, §4, §5, §6

Amaranthus retroflexus [36] = assay: Herbicidal activity, postemergence test; settings: post; sprayed onto seedling plants, 800 g of active material per hectare; evaluated 2 weeks after treatment
Experimental: as §1, §2, §3, §4, §5, §6

O=C(NCc1cccs1)c1nnc(-c2ccccc2F)o1 [Example 11]
7 (good herbicidal effect): STEME control rating (0-9) (Stellaria media [1]) | VERPE control rating (0-9) (Veronica persica [5]) | AMARE control rating (0-9) (Amaranthus retroflexus [18]) | STEME control rating (0-9) (Stellaria media [19]) | PAPRH control rating (0-9) (Papaver rhoeas [33])
9 (complete kill): AMARE control rating (0-9) (Amaranthus retroflexus [36])
5 (definite injury): ABUTH control rating (0-9) (Abutilon theophrasti [35])
6 (herbicidal effect): VERPE control rating (0-9) (Veronica persica [23])
8 (approaching complete kill): PAPRH control rating (0-9) (Papaver rhoeas [15]) | CHEAL control rating (0-9) (Chenopodium album [22])
3 (moderate effect): CHEAL control rating (0-9) (Chenopodium album [4]) | SETVI control rating (0-9) (Setaria viridis [11])
1 (trace effect): ZEAMX control rating (0-9) (Zea mays [8]) | GOSHI control rating (0-9) (Gossypium hirsutum [28])
0 (no effect): GALAP control rating (0-9) (Galium aparine [2]) | GLXMA control rating (0-9) (Glycine max [3]) | LAMPU control rating (0-9) (Lamium purpureum [6]) | HORVW control rating (0-9) (Hordeum vulgare [9]) | GOSHI control rating (0-9) (Gossypium hirsutum [10]) | TRZAW control rating (0-9) (Triticum aestivum [12]) | AMBEL control rating (0-9) (Ambrosia artemisifolia [13]) | IPOHE control rating (0-9) (Ipomoea hederacea [14]) | ALOMY control rating (0-9) (Alopecurus myosuroides [16]) | ABUTH control rating (0-9) (Abutilon theophrasti [17]) | GALAP control rating (0-9) (Galium aparine [20]) | GLXMA control rating (0-9) (Glycine max [21]) | LAMPU control rating (0-9) (Lamium purpureum [24]) | MATIN control rating (0-9) (Matricaria inodora [25]) | ZEAMX control rating (0-9) (Zea mays [26]) | HORVW control rating (0-9) (Hordeum vulgare [27]) | SETVI control rating (0-9) (Setaria viridis [29]) | TRZAW control rating (0-9) (Triticum aestivum [30]) | IPOHE control rating (0-9) (Ipomoea hederacea [32]) | ALOMY control rating (0-9) (Alopecurus myosuroides [34])
2 (slight effect): MATIN control rating (0-9) (Matricaria inodora [7])
4 (injury): AMBEL control rating (0-9) (Ambrosia artemisifolia [31])

C[C@H](NC(=O)c1nnc(-c2ccc(Cl)cc2)o1)c1ccccc1 [Example 12]
4 (injury): HORVW control rating (0-9) (Hordeum vulgare [27])
9 (complete kill): STEME control rating (0-9) (Stellaria media [1]) | VERPE control rating (0-9) (Veronica persica [5]) | SETVI control rating (0-9) (Setaria viridis [11]) | PAPRH control rating (0-9) (Papaver rhoeas [15]) | STEME control rating (0-9) (Stellaria media [19]) | CHEAL control rating (0-9) (Chenopodium album [22]) | VERPE control rating (0-9) (Veronica persica [23]) | LAMPU control rating (0-9) (Lamium purpureum [24]) | GOSHI control rating (0-9) (Gossypium hirsutum [28]) | SETVI control rating (0-9) (Setaria viridis [29]) | IPOHE control rating (0-9) (Ipomoea hederacea [32]) | PAPRH control rating (0-9) (Papaver rhoeas [33]) | ABUTH control rating (0-9) (Abutilon theophrasti [35]) | AMARE control rating (0-9) (Amaranthus retroflexus [36])
8 (approaching complete kill): CHEAL control rating (0-9) (Chenopodium album [4]) | LAMPU control rating (0-9) (Lamium purpureum [6]) | AMARE control rating (0-9) (Amaranthus retroflexus [18])
3 (moderate effect): ZEAMX control rating (0-9) (Zea mays [26]) | ALOMY control rating (0-9) (Alopecurus myosuroides [34])
2 (slight effect): ABUTH control rating (0-9) (Abutilon theophrasti [17]) | TRZAW control rating (0-9) (Triticum aestivum [30])
6 (herbicidal effect): GALAP control rating (0-9) (Galium aparine [20])
7 (good herbicidal effect): MATIN control rating (0-9) (Matricaria inodora [7]) | AMBEL control rating (0-9) (Ambrosia artemisifolia [31])
0 (no effect): GALAP control rating (0-9) (Galium aparine [2]) | GLXMA control rating (0-9) (Glycine max [3]) | ZEAMX control rating (0-9) (Zea mays [8]) | HORVW control rating (0-9) (Hordeum vulgare [9]) | GOSHI control rating (0-9) (Gossypium hirsutum [10]) | TRZAW control rating (0-9) (Triticum aestivum [12]) | AMBEL control rating (0-9) (Ambrosia artemisifolia [13]) | IPOHE control rating (0-9) (Ipomoea hederacea [14])
1 (trace effect): ALOMY control rating (0-9) (Alopecurus myosuroides [16])
5 (definite injury): GLXMA control rating (0-9) (Glycine max [21]) | MATIN control rating (0-9) (Matricaria inodora [25])

Source: EP0726263A2, “Herbicidal (1,3,4)oxadiazoles and thiadiazoles” (American Cyanamid Company, priority 1995, dated 1996)
